Columns and labels:
soybean phytase = details: cited from earlier work
[1] = tested on: phytase activity of fraction F1; details: fraction F1, pH optimum 5.6; cited from earlier work
[2] = tested on: earlier described phytase activity (wheat bran); details: activity with optimum at about pH 5.0; cited from earlier work
[3] = Determination of the isoelectric point (non-denaturing isoelectric focusing); type: physicochemical; details: visualised with 1-naphtylphosphate and Farst Garnet GBC
Method: FIG. 5: depicts the isoelectric focusing of the purified wheat bran phytase. A double band at pH 7.4 is visible after incubation with 1-naphtylphosphate and Farst Garnet GBC.
Proteins were focused at 11° C. for a total of 2.5 kVh in non-denaturing isoelectric-focusing polyacrylamid gels (IEF)(Ampholine PAGplate pH 3.5–9.5 (Pharmacia)). An IEF calibration kit (Pharmacia) was applied to determine the pH-gradient across the gel. The IEF markers were visualised by Coomassie staining according to the recommendations of the manufacturer. The presence of acid phosphatase was identified by incubation of the gel at 37° C. in 100 ml 0.05M citrate, pH 4.5 with 50 mg Na-1-naphtyl phosphate (Merck 6815), 25 mg Farst Garnet GBC (Sigma F-8761) and 0.5 ml 10% MgCl.

| Molecule | enzyme active (soybean phytase; 0.5 μM phosphate) | Ki (soybean phytase; read-out: apparent Ki, product inhibition by phosphate) | inhibition of activity by phosphate [1] | inhibition of activity by phosphate [2] | isoelectric focusing, double band at pH [3] |
| --- | --- | --- | --- | --- | --- |
| phosphate | 67% | 18 µM | inhibited | not inhibited at all | – |
| wheat bran phytase: phytase purified from wheat bran according to the invention (SEQ ID NO: 7) (protein, listed as Triticum aestivum) MWMWRGSLPLLLLAAAVAAAAEPASTLEGPSRPVTVPLREDRGHAVDLPDTDPRVQRRVTGWAPEQIAVALSAAPTSAWVSWITGDFQMGGAVKPLDPGTVGSVVRYGLAADSLVREATGDALVYSQLYPFEGLQNYTSGIIHHVRLQGLEPGTKYYYQCGDPAIPGAMSAVHAFRTMPAVGPRSYPGRIAVVGDLGLTYNTTSTVDHMASNRPDLVLLVGDVCYANMYLTNGTGADCYSCAFGKSTPIHETYQPRWDYWGRYMEAVTSGTPMMVVEGNHEIEEQIGNKTFAAYRSRFAFPSTESGSFSPFYYSFDAGGIHFLMLGAYADYGRSGEQYRWLEKDLAKVDRSVTPWLVAGWHAPWYTTYKAHYREVECMRVAMEELLYSHGLDIAFTGHVHAYERSNRVFNYTLDPCGAVHISVGDGGNREKMATTHADEPGHCPDPRPKPNAFIGGFCAFNFTSGPAAGRFCWDRQPDYSAYRESSFGHGILEVKNETHALWRWHRNQDMYGSAGDEIYIVREPHRCLHKHNWTRPAHGP | – | – | – | – | 7.4 pH |

Source: US7186817B2, “Polynucleotides encoding phytase polypeptides” (Forskningscenter Riso, priority 2000, dated 2007)
